Results published in ChEMBL document CHEMBL4390652, “Design, biological evaluation and X-ray crystallography of nanomolar multifunctional ligands targeting simultaneously acetylcholinesterase and glycogen synthase kinase-3” (Eur J Med Chem, 2019).

Tests used:
[1] = molecular target: Mitogen-activated protein kinase 1 (Homo sapiens) (UniProt P28482); test: Binding affinity to wild-type human full length ERK2 (M1 to S360 residues) expressed in bacterial expression system assessed as residual binding level at 10 uM by Kinomescan method relative to control
[2] = tested on: Phosphatidylinositol 4,5-bisphosphate 3-kinase catalytic subunit alpha isoform (Homo sapiens), P42336 [E545K]; test: Binding affinity to human partial length PIK3CA E545K mutant (R108 to N1068 residues) expressed in mammalian expression system assessed as residual binding level at 10 uM by Kinomescan method relative to control
[3] = molecular target: Activin receptor type-2B (Homo sapiens) (UniProt Q13705); test: Binding affinity to wild-type human ACVR2B (H169 to D504 residues) expressed in bacterial expression system assessed as residual binding level at 10 uM by Kinomescan method relative to control
Activin receptor type-2B (Homo sapiens), sequence (Q13705 whole entry, the tested form may be a part): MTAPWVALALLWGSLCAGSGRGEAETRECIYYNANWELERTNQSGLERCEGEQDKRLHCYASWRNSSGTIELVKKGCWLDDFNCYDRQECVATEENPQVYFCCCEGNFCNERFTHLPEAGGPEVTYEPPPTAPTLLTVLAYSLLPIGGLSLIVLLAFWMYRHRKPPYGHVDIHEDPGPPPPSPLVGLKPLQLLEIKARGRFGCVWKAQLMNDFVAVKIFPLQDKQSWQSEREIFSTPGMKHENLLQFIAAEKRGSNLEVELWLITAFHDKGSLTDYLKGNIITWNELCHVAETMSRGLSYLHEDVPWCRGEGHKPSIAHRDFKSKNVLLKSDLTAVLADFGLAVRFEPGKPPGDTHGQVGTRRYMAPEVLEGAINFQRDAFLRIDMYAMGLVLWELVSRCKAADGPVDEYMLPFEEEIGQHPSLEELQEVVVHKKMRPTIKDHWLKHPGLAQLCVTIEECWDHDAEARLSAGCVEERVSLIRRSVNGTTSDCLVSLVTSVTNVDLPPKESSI

[4] = molecular target: Bone morphogenetic protein receptor type-1B (Homo sapiens) (UniProt O00238); test: Binding affinity to wild-type human partial length BMPR1B (D178 to L502 residues) expressed in mammalian expression system assessed as residual binding level at 10 uM by Kinomescan method relative to control
[5] = molecular target: ALK tyrosine kinase receptor (Homo sapiens) (UniProt Q9UM73); test: Binding affinity to wild-type human partial length ALK (I1088 to E1409 residues) expressed in mammalian expression system assessed as residual binding level at 10 uM by Kinomescan method relative to control
[6] = molecular target: Cyclin-dependent kinase 13 (Homo sapiens) (UniProt Q14004); test: Binding affinity to wild-type human partial length CDC2L5 (H675 to S1054 residues) expressed in mammalian expression system assessed as residual binding level at 10 uM by Kinomescan method relative to control
[7] = molecular target: Serine/threonine-protein kinase PAK 2 (Homo sapiens) (UniProt Q13177); test: Binding affinity to wild-type human partial length PAK2 (P151 to R525 residues) expressed in bacterial expression system assessed as residual binding level at 10 uM by Kinomescan method relative to control
Serine/threonine-protein kinase PAK 2 (Homo sapiens), sequence (Q13177 whole entry, the tested form may be a part): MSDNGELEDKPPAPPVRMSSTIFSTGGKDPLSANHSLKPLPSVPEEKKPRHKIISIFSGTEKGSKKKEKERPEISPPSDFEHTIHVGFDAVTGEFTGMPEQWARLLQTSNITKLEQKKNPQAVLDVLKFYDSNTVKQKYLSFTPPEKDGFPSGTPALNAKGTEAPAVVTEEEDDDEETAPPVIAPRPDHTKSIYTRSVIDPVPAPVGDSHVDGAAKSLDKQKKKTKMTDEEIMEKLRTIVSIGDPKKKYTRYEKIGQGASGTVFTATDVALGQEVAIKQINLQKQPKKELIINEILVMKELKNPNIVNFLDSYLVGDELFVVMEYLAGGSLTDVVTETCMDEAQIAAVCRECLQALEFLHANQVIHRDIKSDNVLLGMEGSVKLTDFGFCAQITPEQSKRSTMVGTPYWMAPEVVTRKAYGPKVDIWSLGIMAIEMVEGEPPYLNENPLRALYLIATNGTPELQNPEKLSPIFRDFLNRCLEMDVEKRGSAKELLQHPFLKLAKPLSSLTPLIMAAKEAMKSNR

[8] = molecular target: Ribosomal protein S6 kinase alpha-4 (Homo sapiens) (UniProt O75676); test: Binding affinity to wild-type human partial length C-terminal RPS6KA4 kinase domain 2 (M375 to T705 residues) expressed in mammalian expression system assessed as residual binding level at 10 uM by Kinomescan method relative to control
[9] = molecular target: Casein kinase II subunit alpha (Homo sapiens) (UniProt P68400); test: Binding affinity to wild-type human full length CSNK2A1 (M1 to Q391 residues) expressed in mammalian expression system assessed as residual binding level at 10 uM by Kinomescan method relative to control
[10] = tested on: Receptor-type tyrosine-protein kinase FLT3 (Homo sapiens), P36888 [UNDEFINED MUTATION]; test: Binding affinity to human partial length FLT3 ITD mutant expressed in bacterial expression system assessed as residual binding level at 10 uM by Kinomescan method relative to control
[11] = molecular target: Vascular endothelial growth factor receptor 2 (Homo sapiens) (UniProt P35968); test: Binding affinity to wild-type human partial length VEGFR2 (R787 to P1253 residues) expressed in mammalian expression system assessed as residual binding level at 10 uM by Kinomescan method relative to control
[12] = molecular target: Myosin light chain kinase family member 4 (Homo sapiens) (UniProt Q86YV6); test: Binding affinity to wild-type human partial length MYLK4 (V79 to S380 residues) expressed in bacterial expression system assessed as residual binding level at 10 uM by Kinomescan method relative to control
[13] = molecular target: Mitogen-activated protein kinase 11 (Homo sapiens) (UniProt Q15759); test: Binding affinity to wild-type human full length p38-beta (M1 to Q364 residues) expressed in bacterial expression system assessed as residual binding level at 10 uM by Kinomescan method relative to control
[14] = molecular target: Non-receptor tyrosine-protein kinase TYK2 (Homo sapiens) (UniProt P29597); test: Binding affinity to wild-type human partial length TYK2 JH1 catalytic domain (V877 to C1187 residues) expressed in mammalian expression system assessed as residual binding level at 10 uM by Kinomescan method relative to control
Non-receptor tyrosine-protein kinase TYK2 (Homo sapiens), sequence (P29597 whole entry, the tested form may be a part): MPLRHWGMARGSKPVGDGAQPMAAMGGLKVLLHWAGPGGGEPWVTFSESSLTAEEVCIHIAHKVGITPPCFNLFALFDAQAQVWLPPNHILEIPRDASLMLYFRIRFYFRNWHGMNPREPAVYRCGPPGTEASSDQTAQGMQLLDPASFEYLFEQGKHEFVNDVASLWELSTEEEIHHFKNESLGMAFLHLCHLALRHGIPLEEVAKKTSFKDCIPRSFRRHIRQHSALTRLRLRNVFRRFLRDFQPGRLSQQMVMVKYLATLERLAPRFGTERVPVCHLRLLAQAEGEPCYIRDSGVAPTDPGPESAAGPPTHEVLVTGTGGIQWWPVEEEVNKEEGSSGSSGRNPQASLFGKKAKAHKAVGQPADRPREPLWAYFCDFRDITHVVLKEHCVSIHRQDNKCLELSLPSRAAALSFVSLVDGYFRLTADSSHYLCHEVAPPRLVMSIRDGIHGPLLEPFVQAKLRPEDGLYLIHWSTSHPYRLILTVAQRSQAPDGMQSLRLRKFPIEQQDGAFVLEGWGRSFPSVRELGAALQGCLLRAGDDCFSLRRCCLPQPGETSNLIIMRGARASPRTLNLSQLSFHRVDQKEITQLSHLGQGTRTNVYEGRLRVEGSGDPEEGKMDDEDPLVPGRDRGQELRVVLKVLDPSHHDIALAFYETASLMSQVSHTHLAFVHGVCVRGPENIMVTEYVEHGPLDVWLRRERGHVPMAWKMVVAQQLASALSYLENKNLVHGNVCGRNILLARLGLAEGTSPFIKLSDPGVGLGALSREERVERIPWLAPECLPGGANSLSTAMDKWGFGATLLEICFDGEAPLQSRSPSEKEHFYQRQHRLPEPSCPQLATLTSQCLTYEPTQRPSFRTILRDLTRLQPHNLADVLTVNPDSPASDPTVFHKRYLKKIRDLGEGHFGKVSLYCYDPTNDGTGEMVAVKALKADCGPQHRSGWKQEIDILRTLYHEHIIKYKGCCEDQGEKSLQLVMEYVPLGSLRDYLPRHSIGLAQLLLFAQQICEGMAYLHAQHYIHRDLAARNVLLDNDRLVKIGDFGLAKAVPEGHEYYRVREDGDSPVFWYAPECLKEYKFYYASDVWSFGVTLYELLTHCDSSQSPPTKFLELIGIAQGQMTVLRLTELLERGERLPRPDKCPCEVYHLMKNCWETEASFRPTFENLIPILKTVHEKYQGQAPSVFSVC

[15] = tested on: ALK tyrosine kinase receptor (Homo sapiens), Q9UM73 [C1156Y]; test: Binding affinity to wild-type human partial length ALK C1156Y mutant (I1088 to E1409 residues) expressed in mammalian expression system assessed as residual binding level at 10 uM by Kinomescan method relative to control
[16] = molecular target: Serine/threonine-protein kinase Nek6 (Homo sapiens) (UniProt Q9HC98); test: Binding affinity to wild-type human full length NEK6 (M8 to T313 residues) expressed in bacterial expression system assessed as residual binding level at 10 uM by Kinomescan method relative to control
Serine/threonine-protein kinase Nek6 (Homo sapiens), sequence (Q9HC98 whole entry, the tested form may be a part): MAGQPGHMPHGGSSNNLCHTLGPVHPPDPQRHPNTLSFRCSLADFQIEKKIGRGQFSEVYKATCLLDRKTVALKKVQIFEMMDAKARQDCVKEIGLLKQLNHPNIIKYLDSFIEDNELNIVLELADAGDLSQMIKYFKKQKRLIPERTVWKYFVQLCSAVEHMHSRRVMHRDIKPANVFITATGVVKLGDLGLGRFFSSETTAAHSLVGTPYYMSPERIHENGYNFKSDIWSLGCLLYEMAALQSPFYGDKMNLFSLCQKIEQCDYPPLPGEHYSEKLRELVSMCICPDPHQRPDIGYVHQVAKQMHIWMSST

[17] = molecular target: Calcium/calmodulin-dependent protein kinase type II subunit alpha (Homo sapiens) (UniProt Q9UQM7); test: Binding affinity to wild-type human partial length CAMK2A (M1 to K328 residues) expressed in bacterial expression system assessed as residual binding level at 10 uM by Kinomescan method relative to control
Calcium/calmodulin-dependent protein kinase type II subunit alpha (Homo sapiens), sequence (Q9UQM7 whole entry, the tested form may be a part): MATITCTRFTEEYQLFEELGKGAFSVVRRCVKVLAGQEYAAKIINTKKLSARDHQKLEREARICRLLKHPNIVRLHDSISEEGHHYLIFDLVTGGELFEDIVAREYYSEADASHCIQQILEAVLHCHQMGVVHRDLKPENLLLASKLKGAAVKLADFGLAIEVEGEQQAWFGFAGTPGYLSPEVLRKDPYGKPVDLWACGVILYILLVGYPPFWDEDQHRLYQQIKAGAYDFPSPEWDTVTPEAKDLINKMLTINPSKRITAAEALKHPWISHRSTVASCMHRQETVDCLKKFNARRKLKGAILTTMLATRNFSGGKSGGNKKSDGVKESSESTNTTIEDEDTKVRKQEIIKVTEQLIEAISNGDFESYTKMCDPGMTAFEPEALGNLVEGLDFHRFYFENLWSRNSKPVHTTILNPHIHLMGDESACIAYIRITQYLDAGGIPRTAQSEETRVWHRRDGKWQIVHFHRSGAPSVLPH

[18] = molecular target: Epidermal growth factor receptor (Homo sapiens) (UniProt P00533); test: Binding affinity to wild-type human partial length EGFR (R669 to V1011 residues) expressed in bacterial expression system assessed as residual binding level at 10 uM by Kinomescan method relative to control
[19] = molecular target: 3-phosphoinositide-dependent protein kinase 1 (Homo sapiens) (UniProt O15530); test: Binding affinity to wild-type human full length PDPK1 (M1 to Q556 residues) expressed in bacterial expression system assessed as residual binding level at 10 uM by Kinomescan method relative to control
3-phosphoinositide-dependent protein kinase 1 (Homo sapiens), sequence (O15530 whole entry, the tested form may be a part): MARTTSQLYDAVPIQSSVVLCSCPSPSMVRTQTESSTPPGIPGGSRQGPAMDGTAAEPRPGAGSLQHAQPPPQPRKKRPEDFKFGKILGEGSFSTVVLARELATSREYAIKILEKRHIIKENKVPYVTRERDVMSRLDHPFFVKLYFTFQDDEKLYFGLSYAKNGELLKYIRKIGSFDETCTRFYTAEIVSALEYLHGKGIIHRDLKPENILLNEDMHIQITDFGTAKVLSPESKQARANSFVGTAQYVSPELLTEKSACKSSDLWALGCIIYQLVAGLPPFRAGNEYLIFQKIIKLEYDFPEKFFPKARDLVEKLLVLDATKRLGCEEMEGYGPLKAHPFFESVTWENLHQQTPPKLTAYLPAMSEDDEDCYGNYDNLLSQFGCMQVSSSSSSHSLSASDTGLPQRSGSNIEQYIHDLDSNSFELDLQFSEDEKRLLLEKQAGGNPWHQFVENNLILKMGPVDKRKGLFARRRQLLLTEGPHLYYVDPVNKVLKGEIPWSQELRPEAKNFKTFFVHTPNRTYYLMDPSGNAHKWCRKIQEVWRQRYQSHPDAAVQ

[20] = molecular target: cGMP-dependent protein kinase 1 (Homo sapiens) (UniProt Q13976); test: Binding affinity to wild-type human partial length PRKG1 (L339 to F686 residues) expressed in bacterial expression system assessed as residual binding level at 10 uM by Kinomescan method relative to control
cGMP-dependent protein kinase 1 (Homo sapiens), sequence (Q13976 whole entry, the tested form may be a part): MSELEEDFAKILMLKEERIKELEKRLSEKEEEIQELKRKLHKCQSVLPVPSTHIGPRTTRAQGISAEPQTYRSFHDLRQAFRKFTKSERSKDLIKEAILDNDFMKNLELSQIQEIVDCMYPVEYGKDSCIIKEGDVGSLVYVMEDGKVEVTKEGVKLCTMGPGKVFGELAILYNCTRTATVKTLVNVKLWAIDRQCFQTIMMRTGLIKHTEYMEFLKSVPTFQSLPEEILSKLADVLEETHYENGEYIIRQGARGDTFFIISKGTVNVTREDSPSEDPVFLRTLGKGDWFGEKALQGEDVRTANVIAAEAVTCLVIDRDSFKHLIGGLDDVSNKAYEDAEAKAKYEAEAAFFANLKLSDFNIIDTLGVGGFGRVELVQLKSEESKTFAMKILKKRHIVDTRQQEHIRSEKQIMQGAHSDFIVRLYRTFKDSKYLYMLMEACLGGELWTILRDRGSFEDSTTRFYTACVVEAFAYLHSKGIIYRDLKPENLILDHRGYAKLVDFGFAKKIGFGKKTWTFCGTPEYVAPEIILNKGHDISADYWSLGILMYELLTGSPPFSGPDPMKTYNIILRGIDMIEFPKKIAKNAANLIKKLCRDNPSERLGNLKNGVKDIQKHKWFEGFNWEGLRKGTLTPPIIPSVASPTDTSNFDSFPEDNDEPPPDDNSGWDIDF

[21] = molecular target: Dual specificity mitogen-activated protein kinase kinase 3 (Homo sapiens) (UniProt P46734); test: Binding affinity to wild-type human full length MEK3 (M1 to S318 residues) expressed in mammalian expression system assessed as residual binding level at 10 uM by Kinomescan method relative to control
Dual specificity mitogen-activated protein kinase kinase 3 (Homo sapiens), sequence (P46734 whole entry, the tested form may be a part): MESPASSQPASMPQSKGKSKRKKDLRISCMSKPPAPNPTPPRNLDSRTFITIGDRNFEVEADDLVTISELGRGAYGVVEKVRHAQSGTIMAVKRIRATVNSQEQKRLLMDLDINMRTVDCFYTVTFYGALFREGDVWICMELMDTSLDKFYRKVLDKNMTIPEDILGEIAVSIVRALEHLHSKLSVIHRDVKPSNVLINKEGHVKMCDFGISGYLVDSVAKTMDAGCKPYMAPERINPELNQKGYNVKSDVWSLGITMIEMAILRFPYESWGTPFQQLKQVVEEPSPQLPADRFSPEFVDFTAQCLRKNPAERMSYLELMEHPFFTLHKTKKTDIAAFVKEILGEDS

[22] = molecular target: Serine/threonine-protein kinase SIK1 (Homo sapiens) (UniProt P57059); test: Binding affinity to wild-type human partial length SIK (M1 to Y304 residues) expressed in bacterial expression system assessed as residual binding level at 10 uM by Kinomescan method relative to control
[23] = molecular target: Discoidin domain-containing receptor 2 (Homo sapiens) (UniProt Q16832); test: Binding affinity to wild-type human partial length DDR2 (V555 to E855 residues) expressed in mammalian expression system assessed as residual binding level at 10 uM by Kinomescan method relative to control
[24] = molecular target: Casein kinase I isoform gamma-2 (Homo sapiens) (UniProt P78368); test: Binding affinity to wild-type human full length CSNK1G2 (M1 to K415 residues) expressed in bacterial expression system assessed as residual binding level at 10 uM by Kinomescan method relative to control
Casein kinase I isoform gamma-2 (Homo sapiens), sequence (P78368 whole entry, looked up, the tested form may be a part, canonical isoform): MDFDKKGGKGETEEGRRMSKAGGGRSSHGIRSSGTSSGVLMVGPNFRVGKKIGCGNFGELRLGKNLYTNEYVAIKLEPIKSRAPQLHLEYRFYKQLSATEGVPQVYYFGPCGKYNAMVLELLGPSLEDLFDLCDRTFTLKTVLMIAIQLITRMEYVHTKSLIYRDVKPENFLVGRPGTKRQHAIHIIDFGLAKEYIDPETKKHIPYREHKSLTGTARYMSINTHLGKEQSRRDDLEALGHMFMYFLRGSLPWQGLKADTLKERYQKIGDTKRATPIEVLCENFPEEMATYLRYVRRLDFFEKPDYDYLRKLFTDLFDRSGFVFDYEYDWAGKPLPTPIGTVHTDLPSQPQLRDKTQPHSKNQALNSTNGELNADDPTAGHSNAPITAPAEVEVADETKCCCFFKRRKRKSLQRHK

O=C(Nc1cc(-c2cn(CCNc3c4c(nc5ccccc35)CCCC4)nn2)ccn1)Nc1cccc2c1C1CCCCN1C2=O (racemic)
Activity [1]: 94%
Activity [2]: 78%
Activity [3]: 100%
Activity [4]: 25%
Activity [5]: 100%
Activity [6]: 0.61%
Activity [7]: 34%
Activity [8]: 69%
Activity [9]: 33%
Activity [10]: 1%
Activity [11]: 9.1%
Activity [12]: 0%
Activity [13]: 74%
Activity [14]: 39%
Activity [15]: 100%
Activity [16]: 28%
Activity [17]: 79%
Activity [18]: 79%
Activity [19]: 41%
Activity [20]: 92%
Activity [21]: 70%
Activity [22]: 73%
Activity [23]: 4.2%
Activity [24]: 68%
